# Source: ChEMBL document CHEMBL1955773, “Hit to lead SAR study on benzoxazole derivatives for an NPY Y5 antagonist” (Bioorg Med Chem Lett, 2012)
# Experiments:
# [1] = Metabolic stability of the compound in rat microsomes assessed as compound remaining after 30 mins; assay type: ADME, Microsome; conditions: read-out: Stability
# [2] = Ratio drug uptake in brain to plasma of rat at 1 mg/kg, po; assay type: ADME, organism-based; design: dose 1 mg/kg, route oral; conditions: read-out: BPR
# [3] = Total clearance in rat at 0.5 mg/kg, iv and 1 mg/kg, po; assay type: ADME, organism-based; conditions: in vivo
# [4] = AUC (0 to infinity) in rat at 0.5 mg/kg, iv and 1 mg/kg, po; assay type: ADME, organism-based; conditions: plasma
# [5] = Cmax in rat at 0.5 mg/kg, iv and 1 mg/kg, po; assay type: ADME, organism-based; conditions: in vivo
# [6] = Bioavailability in rat at 0.5 mg/kg, iv and 1 mg/kg, po; assay type: ADME, organism-based; conditions: in vivo
# Cerebrospinal fluid = assay: Drug uptake in rat cerebrospinal fluid at 0.5 mg/kg, iv and 1 mg/kg, po; assay type: ADME, organism-based; conditions: in vivo, read-out: Drug uptake
# [7] = Volume of distribution at steady state in rat at 0.5 mg/kg, iv and 1 mg/kg, po; assay type: ADME, organism-based; conditions: in vivo, read-out: Vdss
Structure (SMILES),remaining at 0.5 h [1] [%],other results
CCS(=O)(=O)c1ccc2oc(Nc3ccccc3C(F)(F)F)nc2c1,68,–
CCS(=O)(=O)c1ccc2oc(Nc3ccc(N4CCOCC4)cc3)nc2c1,88,–
CCS(=O)(=O)c1ccc2oc(Nc3ccc(N4C[C@@H](C)O[C@@H](C)C4)c(F)c3)nc2c1,61,–
CCS(=O)(=O)c1ccc2oc(Nc3ccc(N4C[C@@H](C)O[C@@H](C)C4)nc3)nc2c1,59,–
CCOc1ccc(Nc2nc3cc(NS(=O)(=O)CC)ccc3o2)cc1,59,–
CCOc1ccc(Nc2nc3ccc(NS(=O)(=O)CC)cc3o2)cc1,86,–
CCOc1ccc(Nc2nc3ccc(NS(=O)(=O)C(C)(C)C)cc3o2)cc1,57,–
C[C@@H]1CN(c2ccc(Nc3nc4ccc(NS(=O)(=O)C(C)(C)C)cc4o3)cc2)C[C@H](C)O1,68,–
CCS(=O)(=O)c1ccc2oc(NC3CCCCC3)nc2c1,45,–
CCS(=O)(=O)c1ccc2oc(NCc3ccccc3)nc2c1,46,–
CCS(=O)(=O)c1ccc2oc(Nc3ccc(C(F)(F)F)nc3)nc2c1,99,–
CCS(=O)(=O)c1ccc2oc(Nc3ccc(C(F)(F)F)cn3)nc2c1,97,–
CCS(=O)(=O)c1ccc2oc(Nc3ccc(N4CCOCC4)nc3)nc2c1,81,–
CCS(=O)(=O)c1ccc2oc(NC3CCC(C(C)(C)C)CC3)nc2c1 (mixture of isomers),1,–

# Further lines, with some results ahead:
remaining at 0.5 h [1] [%],Structure (SMILES),other results
27,CCS(=O)(=O)c1ccc2oc(Nc3ccc(C(C)(C)C)cc3)nc2c1,–
53,CCS(=O)(=O)c1ccc2oc(Nc3ccccc3)nc2c1,–
81,CCS(=O)(=O)c1ccc2oc(Nc3ccc(Cl)cc3)nc2c1,–
101,CCS(=O)(=O)c1ccc2oc(Nc3ccc(C(F)(F)F)cc3)nc2c1,–
63,CCS(=O)(=O)c1ccc2oc(Nc3cccc(C(F)(F)F)c3)nc2c1,–
97,CCS(=O)(=O)c1ccc2oc(Nc3ccc(OC(F)(F)F)cc3)nc2c1,–
73,CCS(=O)(=O)c1ccc2oc(Nc3ccc(OC(C)C)cc3)nc2c1,Kp [2]: 2.63; clearance [3]: 66 mL/min/kg; AUC(0-inf) [4]: 40 ng·h/mL; Cmax [5]: 6 ng/mL; bioavailability [6]: 16%; concentration (Cerebrospinal fluid): 8.8 nM; Vd [7]: 2.62 L/kg
85,CCS(=O)(=O)c1ccc2oc(Nc3ccc(N4C[C@@H](C)O[C@@H](C)C4)cc3)nc2c1,Kp [2]: 0.64; clearance [3]: 33 mL/min/kg; AUC(0-inf) [4]: 260 ng·h/mL; Cmax [5]: 26 ng/mL; bioavailability [6]: 52%; concentration (Cerebrospinal fluid): 15.9 nM; Vd [7]: 1.74 L/kg
62,CCOc1ccc(Nc2nc3cc(S(C)(=O)=O)ccc3o2)cc1,–
49,CCOc1ccc(Nc2nc3cc(S(=O)(=O)C(C)C)ccc3o2)cc1,–
46,CCOc1ccc(Nc2nc3cc(S(=O)(=O)C(C)(C)C)ccc3o2)cc1,–
81,CCOc1ccc(Nc2nc3ccc(S(=O)(=O)CC)cc3o2)cc1,–
35,CCS(=O)(=O)c1ccc2oc(NC(C)(C)c3ccccc3)nc2c1,–
